Laboratory results: patent US20160199499A1, “USES OF PH[…] SYNTHETIC TLR7 AGONISTS” (priority 2013, published 2016)
Where “and” joins values, the source holds several entries; their conditions need not be identical. Equal entries are not always repeated.

How the values were obtained:
[1] = system: Vaccinia virus (IHD strain); design: species or system BALB/c mice; conditions: mouse, in vivo
B220+ B cells = assay: B cell numbers in lymph nodes after pulmonary administration (flow cytometry); conditions: 1 nmol, 7 days post treatment
[2] = system: cytokines and chemokines in BAL fluids and sera; assay: Luminex bead assay of cytokines and chemokines in BAL fluids and sera after pulmonary administration
[3] = Body weight monitoring / maximum tolerated dose after pulmonary administration
CD11c+ dendritic cells = assay: In vivo CFSE labeling of dendritic cells, migration to mediastinal lymph nodes (flow cytometry); design: species or system C57BL/6 mice; conditions: 1 nmol i.t., 24 h after drug administration
lung parenchyma = assay: Lung histology (H&E) after i.t. administration; conditions: 1 nmol i.t., 6 and 24 h post treatment
[4] = system: influenza A/California/04/2009 (H1N1) virus; design: species or system BALB/c mice; conditions: mouse, in vivo
[5] = system: neutrophils in BAL fluids; assay: BAL cell counts (Guava cytometer, Wright-Giemsa differential) after i.t. administration; type: in vivo, C57BL/6 mice
[6] = system: Venezuelan equine encephalitis virus (Trinidad Donkey, NR-332); design: species or system BALB/c mice; conditions: mouse, in vivo, sc
Particle size in PBS = type: physicochemical
West Nile Virus (WNV) = assay: West Nile virus s.c. infection model; type: in vivo, C57BL/6 mice
[7] = 1 nmol i.t., 6 h post-treatment, vs vehicle
[8] = 24 h after pulmonary (i.n.) administration, up to a 4 nmol dose

CCCCCCCC/C=C\CCCCCCCC(=O)OCC(COP(=O)(O)OCCNC(=O)c1ccc(Cn2c(=O)[nH]c3c(N)nc(OCCOC)nc32)cc1)OC(=O)CCCCCCC/C=C\CCCCCCCC (stereo not shown) [1V270, 2-(4-{[6-Amino-2-(2-methoxyethoxy)-8-oxo-7H-purin-9(8H)-yl]methyl}benzamido)ethyl 2,3-Bis(oleoyloxy)propyl Phosphate]
Mean Day of Death ± SD [1]: 7.2 ± 0.6 days and 8.4 ± 0.5 days and 9.0 days and 8.0 days and 7.3 ± 0.8 days
Survivors/Total [1]: 0/10 and 10/10*** and 5/10** and 9/10*** and 8/10*** and 3/10*
body weights during the infection [1]: increased over the first three days before declining
mice protected from death [1]: 90-100%
preserving body weight, rank among treatments [1]: best effect in preserving body weight
B cell number in the cervical, mesenteric and inguinal nodes (B220+ B cells): did not significantly increase
B cell number in the draining mediastinal lymph nodes (B220+ B cells): did not significantly increase
IL-6 in BAL fluids [2, 7]: significantly increased
KC in BAL fluids [2, 7]: significantly increased
MCP-1 in BAL fluids [2, 7]: significantly increased
IP-10 induction in BAL fluids (surrogate marker of type 1 IFN) ([2]; 1 nmol i.t., monitored up to 72 h): peaked at 24 h and declined to baseline levels 72 h post treatment
IL-6 in sera [2, 8]: minimal insignificant increase
TNFα in sera [2, 8]: minimal insignificant increase
weight loss in TLR7 null mice ([3]; 75 nmol i.t., Tlr7-/- mice): did not lose weight
MTD relative to the effective dose ([3]; MTD 75 nmol/animal vs effective dose 1 nmol): 75 times
weight loss compared to vehicle treated mice ([3]; effective dose (1 nmoles), i.t.): did not cause significant weight loss
effective dose ([3]; pulmonary route, mice): 1 nmol
maximum tolerated dose (MTD) ([3]; pulmonary route, mice): 75 nmol/animal
CD11c+ DC migration to the mediastinal lymph nodes (CD11c+ dendritic cells): enhanced
inflammatory cell infiltration into the lung parenchyma (lung parenchyma): did not show inflammatory cell infiltration into the lung parenchyma
mice protected from lethal H1N1 pulmonary influenza infection [4]: 100%
cell infiltration and neutrophil recruitment to BAL fluids in MyD88 or TLR7 null mice ([5]; 1 nmol i.t., 24 h, Myd88-/- or Tlr7-/- mice): diminished
mononuclear cells in BAL fluids ([5]; 1 nmol i.t., 24 h after treatment, also elevated in vehicle-treated mice): slightly elevated
neutrophil population in BAL fluids ([5]; 1 nmol i.t., 24 h and 48 h after treatment): significant increase
total cell numbers in the BAL fluids ([5]; 1 nmol i.t., monitored for 72 h): increased over 48 h and declined to near baseline levels 72 h post pulmonary administration
neutrophil influx dose response ([5]; 24 h post treatment, i.t.): dose responsive between 0.1 to 10 nmol
mice protected from encephalitis [6]: Eighty
particle size (Particle size in PBS; dispersed in 50 μL PBS): 100-150 nm
particle size, average (Particle size in PBS; in PBS, regardless of concentration): about 110 nm
survival compared to placebo-treated mice (West Nile Virus (WNV); 1 nmol/mouse i.n. at days -3 and -1, WNV s.c. day 0): not significant
survival compared to placebo-treated mice (West Nile Virus (WNV); 1 nmol/mouse i.n. on day -1, WNV s.c. day 0 (P≦0.05)): statistically improved

Nc1ccn(C[C@@H](CO)OCP(=O)(O)O)c(=O)n1 [Cidofovir, reference compound]
Survivors/Total [1]: 10/10
effects on body weight [1]: superior to treatments with 1V270 that were started on the same day
mice protected from death [1]: 100%
